For seven molecules, Ki results are on record in EP0481522B1, “Novel mercaptoacetylamide derivatives useful as inhibitors of enkephalinase and ace” (MERRELL PHARMACEUTICALS INC., priority 1990, dated 1992).

Bounds are passed on as bounds.

The target of assay [1] is ACE (Homo sapiens, UniProt P12821). Description: ACE inhibition, spectrophotometric enzyme assay. The class given is biochemical. Particulars: spectrophotometric substrate of Holmquist et al., buffer system of Ryan. From the text:
The enzymatic activity of ACE is monitored using the spectrophotometric substrate described by Holmquist et al. [Anal.Biochem. 95, 540-548 (1979)] and the buffer system described by Ryan [Methods of Enzymatic Analysis, 3rd ed., H. U. Bergmeyer, editor; vol. V, Verlag Chemie, Weinheim, 1983, pp. 20-34].

In assay [2] the target is T1, Enkephalinase (Rattus norvegicus, UniProt P07861).
T1 construct: The enzyme is extracted from the microvilli fraction by using Triton X-100; from tissue; host or cells: rat kidney, microvilli fraction
T1 sequence (P07861 1-750): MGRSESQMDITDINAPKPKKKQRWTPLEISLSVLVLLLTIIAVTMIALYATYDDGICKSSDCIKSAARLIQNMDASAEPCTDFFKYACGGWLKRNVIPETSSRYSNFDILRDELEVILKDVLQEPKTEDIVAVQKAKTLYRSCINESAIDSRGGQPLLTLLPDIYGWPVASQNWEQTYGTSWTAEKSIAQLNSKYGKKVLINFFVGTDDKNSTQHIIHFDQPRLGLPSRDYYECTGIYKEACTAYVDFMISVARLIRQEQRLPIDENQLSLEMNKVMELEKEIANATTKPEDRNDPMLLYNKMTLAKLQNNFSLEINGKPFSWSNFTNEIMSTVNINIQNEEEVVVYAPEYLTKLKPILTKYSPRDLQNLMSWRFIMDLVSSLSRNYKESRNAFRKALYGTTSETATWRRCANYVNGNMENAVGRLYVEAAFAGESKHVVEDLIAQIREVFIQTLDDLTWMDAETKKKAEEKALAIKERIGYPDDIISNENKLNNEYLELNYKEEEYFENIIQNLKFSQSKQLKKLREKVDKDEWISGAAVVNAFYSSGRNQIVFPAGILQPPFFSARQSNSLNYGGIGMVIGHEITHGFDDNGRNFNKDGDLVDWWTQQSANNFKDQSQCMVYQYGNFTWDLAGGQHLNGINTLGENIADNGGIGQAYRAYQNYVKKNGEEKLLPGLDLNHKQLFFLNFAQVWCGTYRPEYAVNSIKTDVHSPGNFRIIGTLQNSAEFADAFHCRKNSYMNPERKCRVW
Description: Enkephalinase inhibition, fluorometric enzyme assay. The conditions noted are these: enzyme partially purified from rat kidney; 12 µM dansyl-D-AlaGly(p-nitro)PheGly, 50mM HEPES buffer (pH 7.4), 25°C. Type of assay: biochemical. From the text: Enkephalinase is partially purified from rat kidney. The enzyme is extracted from the microvilli fraction by using Triton X-100 according to the method of Malfroy and Schwartz [J.Biol.Chem. 259, 14365-14370 (1984)] or by using proteolytic treatment according to the method of Almenoff and Orlowski [Biochem. 22, 590-599 (1983)]. The enzyme is further purified by anion exchange chromatography (Mono QTM column, Pharmacia) using a Pharmacia FPLC system. The enzyme activity may be measured by the fluorometric methods of Florentin et al. [Anal.Biochem. 141, 62-69 (1984)] or of Almenoff and Orlowski [J.Neurochemistry 42, 151-157 (1984)]. […] The substrate (and inhibitor) is added from a concentrated stock soluticn in DMSO (up to 0.1 mL DMSO final volume). The enzyme in a small volume (approximately 0.1 μg of FPLC purified protein) is added to initiate the reaction and the rate of fluorescense increase is recorded continuously using a fluorometer (excitation at 339nm, emission at 562nm).

Chain of ACE (P12821 30-1306, species assumed): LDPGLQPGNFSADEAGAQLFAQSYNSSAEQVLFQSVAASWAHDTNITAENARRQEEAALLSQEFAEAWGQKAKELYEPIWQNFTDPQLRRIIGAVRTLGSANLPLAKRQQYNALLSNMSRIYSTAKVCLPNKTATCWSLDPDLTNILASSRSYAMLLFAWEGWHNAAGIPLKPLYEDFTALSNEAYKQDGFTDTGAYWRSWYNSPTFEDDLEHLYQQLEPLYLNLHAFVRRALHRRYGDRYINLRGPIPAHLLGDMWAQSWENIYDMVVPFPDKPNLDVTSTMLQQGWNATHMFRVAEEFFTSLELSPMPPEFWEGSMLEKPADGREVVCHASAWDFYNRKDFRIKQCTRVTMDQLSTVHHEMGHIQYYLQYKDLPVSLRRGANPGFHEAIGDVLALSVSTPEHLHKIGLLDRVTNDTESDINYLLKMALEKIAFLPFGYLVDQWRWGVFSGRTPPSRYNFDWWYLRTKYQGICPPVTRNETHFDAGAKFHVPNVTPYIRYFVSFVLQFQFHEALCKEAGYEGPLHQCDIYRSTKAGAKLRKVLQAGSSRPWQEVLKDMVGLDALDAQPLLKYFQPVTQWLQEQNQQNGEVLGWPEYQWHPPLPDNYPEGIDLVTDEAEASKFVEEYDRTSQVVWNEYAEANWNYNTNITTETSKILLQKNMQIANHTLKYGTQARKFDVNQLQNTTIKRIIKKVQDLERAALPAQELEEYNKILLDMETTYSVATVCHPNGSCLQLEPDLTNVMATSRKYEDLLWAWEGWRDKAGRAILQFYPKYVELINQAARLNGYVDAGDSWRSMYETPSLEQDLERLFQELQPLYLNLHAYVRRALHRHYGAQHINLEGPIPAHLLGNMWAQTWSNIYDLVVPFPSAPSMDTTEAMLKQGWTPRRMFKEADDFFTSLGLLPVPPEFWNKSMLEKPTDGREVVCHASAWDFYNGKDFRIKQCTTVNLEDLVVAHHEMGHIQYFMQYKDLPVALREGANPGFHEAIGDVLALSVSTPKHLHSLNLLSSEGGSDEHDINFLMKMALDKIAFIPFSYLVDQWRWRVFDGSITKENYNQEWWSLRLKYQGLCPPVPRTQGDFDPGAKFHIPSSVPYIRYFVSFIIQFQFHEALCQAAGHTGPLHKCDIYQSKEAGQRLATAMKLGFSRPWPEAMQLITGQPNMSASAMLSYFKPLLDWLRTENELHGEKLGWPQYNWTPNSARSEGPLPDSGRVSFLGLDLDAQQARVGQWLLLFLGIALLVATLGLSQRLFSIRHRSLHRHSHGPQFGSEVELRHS

As usually defined, the Ki is the equilibrium dissociation constant of an inhibitor or competing ligand from its target. Lower therefore signals a stronger hold on the target. On to `O=C(N[C@H]1Cc2ccccc2[C@H]2COC[C@@H](C(=O)O)N2C1=O)[C@@H](S)Cc1ccccc1` (relative stereo) [101,519, [4S-[4α, 7α(R*), 12bβ]]-7-[(1-Oxo-2(S)-thio-3-phenylpropyl)amino]-1,2,3,4,6,7,8,12b-hexahydro-6-oxo-1 H-[1,4]-oxazino[3,4-a][2]benzazepine-4-carboxylic acid], for which the Ki in assay [1] was < 7 nM; in assay [2] it was < 1 nM.
The corresponding values for `O=C(N[C@H]1Cc2ccccc2[C@H]2CCC[C@@H](C(=O)O)N2C1=O)[C@@H](S)Cc1ccccc1` (relative stereo) [100,173, [4S-[4α, 7α(R*), 12bβ]]-7-[(1-oxo-2(S)-thio-3-phenylpropyl)amino]-1,2,3,4,6,7,8,12b-octahydro-6-oxo-pyrido[2,1-a][2]benzazepine-4-carboxylic acid] are 0.74 nM and < 1 nM.
`O=C(N[C@H]1Cc2ccccc2[C@H]2CCC[C@@H](C(=O)O)N2C1=O)[C@H](S)Cc1ccccc1` (relative stereo) [101,628, [4S-[4α, 7α(R*), 12bβ]]-7-[(1-Oxo-2(R)-thio-3-phenylpropyl)amino]-1,2,3,4,6,7,8,12b-octahydro-6-oxo-pyrido[2,1-a][2]benzazepine-4-carboxylic acid]: the Ki in assay [1] is 6.7 nM; in assay [2] it was < 1 nM.
For the molecule `O=C(N[C@H]1Cc2ccccc2[C@H]2CCC[C@@H](C(=O)O)N2C1=O)C(S)c1ccccc1` (relative stereo) [101,804, [4S-[4α, 7α(R*), 12bβ]]-7-[(1-Oxo-2-thio-2-phenylethyl)amino]-1,2,3,4,6,7,8,12b-octahydro-6-oxo-pyrido[2,1-a][2]benzazepine-4-carboxylic acid], the inhibition constant (Ki) in assay [1] is 2.1 nM; in assay [2], 1 nM.
The corresponding values for `O=C(N[C@H]1Cc2ccccc2[C@H]2CC[C@@H](C(=O)O)N2C1=O)[C@H](S)Cc1ccccc1` (relative stereo) [100,919, [6α(R*), 11bβ]-6-[(S)-(1-oxo-2(R)-thio-3-phenylpropyl)amino]-1,2,3,5,6,7,11b-heptahydro-5-oxo-pyrrolo[2,1-a][2]benzazepine-3(S)-carboxylic acid] are 1 nM and < 1 nM.
The like results for `O=C(CS)N[C@H]1Cc2ccccc2[C@H]2CCC[C@@H](C(=O)O)N2C1=O` (relative stereo) [27,855, [4S-[4α, 7α(R*), 12bβ]]-7-[(1-oxo-2-thio-ethyl)amino]-1,2,3,4,6,7,8,12b-octahydro-6-oxo-pyrido[2,1-a][2]benzazepine-4-carboxylic acid] were, in that order, 5 nM and 8 nM.
The corresponding values for `CC(=O)S[C@@H](Cc1ccccc1)C(=O)N[C@H]1Cc2ccccc2[C@H]2COC[C@@H](C(=O)O)N2C1=O` (relative stereo) [102,179, [4S-[4α, 7α(R*), 12bβ]]-7-[(1-Oxo-2(S)-acetylthio-3-phenylpropyl)amino]-1,2,3,4,6,7,8,12b-hexahydro-6-oxo-1H-[1,4]oxazino[3,4-a][2]benzazepine-4-carboxylic acid] are < 7 nM and < 1 nM.
